The results in this text go back to patent US20220151227A1, “CARNIVOROUS WASP CONTROL AGENT” (EARTH CORPORATION, priority 2019, published 2022).

One experiment relates to Vespa ducalis. In words: Control Test 1: aerosol sprayed on one test wasp in metal mesh cage, control time. The settings on record: 2 g aerosol sprayed 1 second from approx. 30 cm, observed up to 180 seconds. The class given is in vivo. The text has this: (§1) Ten grams of ethyl lactate, which is an active ingredient under the present invention, was put in an aerosol can as a liquid concentrate, and then a valve part was installed on the can, after which dimethyl ether was filled through the valve part as a propellant until the weight ratio of the liquid concentrate and the propellant became 1:2, and then a spray button was installed, to obtain 30 g of aerosol test sample in Example 1.
(§2) In Examples 2 to 28 and Comparative Examples 1 to 6, the liquid concentrates shown in Table 1 below were used to obtain 30 g of respective test samples in the same manner as in Example 1.
(§3) After spraying, the time it took for the test wasp to stop behaving normally and begin grooming abnormally and showing agitated behaviors (flapping of wings), and eventually drop to the bottom of the metal gauge, was measured as the control time (in seconds). In Table 1, “IPA” stands for isopropanol, while “%” refers to % by weight.
(§4) It should be noted that “turpentine oil” in Examples 2 and 3 is a plant-based essential oil containing 85% by weight or more of α-pinene which is an active ingredient under the present invention, while Comparative Example 5 contains 1% by weight of isopropyl myristate as a dissolving aid.
For the compound `CC(C)[C@@H]1CC[C@@H](C)CC1=O` [Example 5, Menthone], the Control time is <1 s.

The next experiment concerns Vespa mandarinia. The description is as above. The settings on record: 2 g aerosol sprayed 1 second from approx. 30 cm, observed up to 180 seconds. The class given is in vivo.
Description: as §1, §2, §3, §4
Consider `C=CC(C)(O)CCC=C(C)C` (stereo not drawn) [compound 3, Linalool], for which the Control time was >180 s.

A further experiment concerns Polistes rothneyi. Described as above. The format is in vivo. The settings on record: 2 g aerosol sprayed 1 second from approx. 30 cm, observed up to 180 seconds.
Description: as §1, §2, §3, §4
In the case of `CCOC(=O)c1ccccc1` [Example 7, Ethyl benzoate], the Control time is <1 s.

On to `CC12CCC(CC1)C(C)(C)O2` [Example 20, Cineol], for which the Control time was <1 s.

As for `CC(C)=CCCC(C)=CCCC(C)=CCO` [Example 8, Farnesol], the Control time is <1 s.

α-turpentine [Example 9]: the Control time was <1 s.

Take `COC(=O)c1ccccc1` [Example 6, Methyl benzoate]: the Control time was <1 s.

Regarding `O=C(Cc1ccccc1)OCc1ccccc1` [Example 14, Benzyl phenyl acetate], the Control time is <1 s.

Take `CC(C)[C@]12CC(=O)[C@H](C)[C@H]1C2` [Example 12, Thujone]: the Control time is <1 s.

For the compound `CC(C)=C1CC[C@@H](C)CC1=O` [Example 10, Pulegone], the Control time is <1 s.

In the case of `CCCCCC(O)CC` (stereo not drawn) [Example 13, 3-octanol], the Control time was <1 s.

As to `CC(C)=CCCC(C)=CC=O` [Example 11, Citral], the Control time is <1 s.

A further experiment concerns Vespa simillima. Described as above. The settings on record: 2 g aerosol sprayed 1 second from approx. 30 cm, observed up to 180 seconds. The format is in vivo.
Description: as §1, §2, §3, §4
Regarding `CC(=O)OC1CC(C)CCC1C(C)C` (stereo not drawn) [compound 2, Menthyl acetate], the Control time was >180 s.

In the next experiment the test system is Polistes jokahamae. Described as above. The settings on record: 2 g aerosol sprayed 1 second from approx. 30 cm, observed up to 180 seconds. The class given is in vivo.
Description: as §1, §2, §3, §4
With `COC(=O)C(C)O` (stereo not drawn) [Example 26, Methyl lactate], the Control time was <1 s.

As for `CCCCOC(=O)C(C)O` (stereo not drawn) [Example 27, n-butyl lactate], the Control time is <1 s.

As for `C=C(C)C1CC=C(C)C(=O)C1` (stereo not drawn) [Example 23, Carvone], the Control time is <1 s.

Regarding `CC(C)[C@@H]1CC[C@@H](C)CC1=O` [Example 4, Menthone], the Control time was <1 s.

On to `COC(=O)Cc1ccccc1` [Example 28, Methyl phenyl acetate], for which the Control time was <1 s.

As for `CC(C)O` [compound 6, IPA, reference compound], the Control time is >180 s.

Regarding `CCOC(=O)C(C)O` (stereo not drawn) [Example 1, Ethyl lactate], the Control time is <1 s.

Consider `CC1CCC(C(C)C)C(O)C1` (stereo not drawn) [Example 21, Menthol], for which the Control time was <1 s.
